Earlier results on one molecule are cited in patent US20250002523A1, “RUBUSOSIDE GLUCOSIDES” (SYMRISE AG, priority 2021, published 2025).

Structures are written as SMILES.

The conditions of this series: reported in the background section.

With `C=C1C[C@@]23CC[C@H]4[C@@](C)(CCC[C@@]4(C)C(=O)O[C@@H]4O[C@H](CO)[C@@H](O)[C@H](O)[C@H]4O)[C@@H]2CC[C@]1(O[C@@H]1O[C@H](CO)[C@@H](O)[C@H](O)[C@H]1O)C3` [Rubusoside], the “sweet taste impression relative to sucrose” value is reported as 200 times as strong as sucrose.
